Read-outs that look alike come from different tables or passages of the source.
Assays:
A1 adenosine receptor [1] = target: T1, A1 adenosine receptor (Mesocricetus auratus, UniProt A0A1U8BVR4); assay: [35S]GTPγS binding assay, A1-agonist stimulated; format: biochemical, hamster; settings: agonist stimulated [35S]GTPγS binding, CPA = 100%
T1 construct: endogenous in cells; host or cells: DDT1 (DDT1 MF-2) hamster vas deferens smooth muscle cells
T1 sequence (A0A1U8BVR4 1-326): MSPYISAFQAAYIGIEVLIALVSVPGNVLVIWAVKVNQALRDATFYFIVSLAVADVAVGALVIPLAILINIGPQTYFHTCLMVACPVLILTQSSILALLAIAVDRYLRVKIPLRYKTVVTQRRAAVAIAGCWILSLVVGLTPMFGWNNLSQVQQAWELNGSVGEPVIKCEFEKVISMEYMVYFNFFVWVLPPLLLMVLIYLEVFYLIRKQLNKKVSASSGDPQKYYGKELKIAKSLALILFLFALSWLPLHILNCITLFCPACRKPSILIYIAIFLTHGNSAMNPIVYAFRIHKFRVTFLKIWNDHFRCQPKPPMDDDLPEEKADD
Experimental: (§1) Attached cells were washed twice with HBSS (2×10 ml), scraped free of the plate with the aid of a rubber policeman in 5 ml of 50 mM Tris-HCI buffer pH 7.4 at 4° C. and the suspension homogenized for 10 s. The suspension was then centrifuged at 27,000×g for 10 min. The pellet was resuspended in homogenization buffer by vortexing and centrifuged as described above. The final pellet was resuspended in 1 vol of 50 mM Tris-HCI buffer pH 7.4 containing 5 mM MgCl2 for A1 AdoR assays. For the [^35S]GTPγS binding assay the final pellet was resuspended in 50 mM Tris-HCI pH 7.4 containing 5 mM MgCl2, 100 mM NaCl and 1 mM dithiothreitol. This membrane suspension was then placed in liquid nitrogen for 10 min, thawed and used for assays. The protein content was determined by the method of Bradford (1976) using bovine serum albumin as standard.
A1-agonist stimulated [^35S]GTPγS binding was determined by a modification of the method described by Giersckik et al. (1991) and Lorenzen et al. (1993). […] Nonspecific binding was determined by the addition of 10 μM GTPγS. […] Previous reports have shown that agonist stimulated [^35S]GTPγS binding was dependent on the presence of GDP (Gierschik et al., 1991; Lorenzen et al., 1993; Traynor & Nahorski, 1995). […] In saturation experiments, 0.5 nM [^35S]GTPγS was incubated with 0.5-1000 nM GTPγS. At the end of the incubation, each suspension was filtered and the retained radioactivity determined as described above.

A1 adenosine receptor [2] = target: T1, A1 adenosine receptor; assay: cAMP assay (SPA) in DDT1 cells, forskolin-induced cAMP; format: cell-based, hamster; settings: normalized to full agonist CPA, 5 μM forskolin, 50 μM rolipram; for Emax: 10 min
Experimental: A scintillation proximity assay (SPA) using rabbit antibodies directed at cAMP using an added tracer of adenosine 3′,5′-cyclic phosphoric acid 2′-O-succinyl-3-[^125I]iodotyrosine methyl ester and fluoromicrospheres containing anti-rabbit specific antibodies as described by Amersham Pharmacia Biotech (Biotrak cellular communication assays). Briefly, DDT1 cells were cultured in clear bottomed 96 well microtiter plates with opaque wells at concentrations between 10^4 to 10^6 cells per well in 40 μl of HBSS at 37° C. (5% CO2 and 95% humidity). The partial or full A1 agonists (5 μl) of this invention were incubated at various concentrations with the DDT1 cells in the presence of rolipram (50 μM), and 5 μM forskolin for 10 min at 37° C. The cells were immediately lysed by treatment 5 μl of 10% dodecyltrirnethylammonium bromide followed by shaking using rnicroplate shaker. After incubation of the plate for 5 minutes, an imnuunoreagent solution (150 μl containing equal volumes of tracer, antiserum, and SPA fluorospheres) was added to each well followed by sealing the plate. After 15-20 h at 23° C., the amount of bound [^125] cAM to the fluoromicrospheres was determined by counting in a microtitre plate scintillation counter for 2 minutes. Comparison of counts with standard curves generated for cAMP using a similar protocol afforded the cAMP present after cell lysis.

A1 receptor = target: T2, A1 receptor (Mesocricetus auratus, UniProt A0A1U8BVR4); assay: Competitive binding assay, DDT1 cell membranes, [3H]CCPA; parameters: species or system hamster; settings: [3H]CCPA 2 nM
T2 construct: endogenous in cells; host or cells: DDT1 (DDT1 MF-2) hamster vas deferens smooth muscle cells
T2 sequence (A0A1U8BVR4 1-326): T1 sequence (A0A1U8BVR4 1-326)
Experimental: Cells were subcultured twice weekly by dispersion in Hank's Balanced Salt Solution (HBSS) without the divalent cations and containing 1 mM EDTA. The cells were then seeded in growth medium at a density of 1.2×10^5 cells per plate and experiments were performed 4 days later at approximately one day preconfluence.
as §1, with “assays.” for “assays. The protein content was determined by the method of Bradford (1976) using bovine serum albumin as standard.”
Competitive Binding Assay Pig striatum were prepared by homogenation in 50 mM Tris buffer (5× volume of tissue mass pH=7.4). After centrifilgation at 19,000 rpm for 25 minutes at 4° C., the supernatant was discarded, and the process was repeated twice. Compositions of this invention were assayed to determine their affinity for the A1 receptor in a pig striatum membrane prep or a DDT, membrane prep. Briefly, 0.2 mg of pig striatal membranes or DDT, cell membranes were treated with adenosine deaminase and 50 mM Tris buffer (pH=7.4) followed by mixing. To the pig membranes was added 2 μL of serially diluted DMSO stock solution of the compounds of this invention at concentrations ranging from 100 microM to 10 nM. The control received 2 microL of DMSO alone, then the antagonist [^3H] 8-cyclopentylxanthine (CPX) for pig striatum or the agonist [^3H] 2-chloro-6-cyclopentyladenosine (CCPA) for DDT, membranes in Tris buffer (50 mnM, pH of 7.4) was added to achieve a final concentration of 2 nM. After incubation at 23 C for 2 h, the solutions were filtered using a membrane harvester using multiple washing of the membranes (3×). The filter disks were counted in scintillation cocktail affording the amount of displacement of triated CPX or by the competitive binding compositions of this invention. In the case of the DDT1 cell membranes, some of the determinations of binding affinity (Ki) were made in the presence of Gpp(NH)p as noted in Table 1 (note: Gpp(NH)p shifts the receptor to a low affinity form). Greater than a 5 point curve was used to generate Ki's and the number of experiments is indicated in the column marked in Table 1 below.

[3] = DDT1 cell membranes, read-out: Ki-DDT1 cell membrane
[4] = in presence of Gpp(NH)p (low affinity form), read-out: Ki - DDT1 cell membrane In presence of Gpp (NH)p

Row | SMILES | Emax (A1 adenosine receptor [1]) [%] | Emax (A1 adenosine receptor [2]) [%] | Ki (A1 receptor; [3]) [µM] | other results
1 | COC(=O)NCC1OC(n2cnc3c(N[C@@H]4CCOC4)ncnc32)C(O)C1O (stereo partly drawn) [Compound 18] | 77 | 86 | – | –
2 | COC(=O)C1CCCC1NC(=O)OCC1OC(n2cnc3c(N[C@@H]4CCOC4)ncnc32)C(O)C1O (stereo partly drawn) [Compound 34] | 17 | -20 | 3.46 | –
3 | O=C(NC1CCCC1OCc1ccccc1)OCC1OC(n2cnc3c(N[C@@H]4CCOC4)ncnc32)C(O)C1O (stereo partly drawn) [Compound 38] | – | – | – | GTPγS (A1 adenosine receptor [1]): 1%; cAMP (A1 adenosine receptor [2]): −25%
4 | O=C(NC1CC1c1ccccc1)OC[C@H]1O[C@@H](n2cnc3c(N[C@@H]4CCOC4)ncnc32)[C@H](O)[C@@H]1O (stereo partly drawn) [Compound 40, [(5-{6-[((3R)oxolan-3-yl)amino}purin-9-yl}(3S,2R,4R,5R)-3,4-dihydroxyoxolan-2-yl)methoxy]-N-(2-phenylcyclopropyl)carboxamide] | -6 | -14 | – | –
5 | OC1C(COC(=S)NCc2ccccc2)OC(n2cnc3c(N[C@@H]4CCOC4)ncnc32)C1O (stereo partly drawn) [Compound 54] | 93 | – | – | Ki (A1 receptor; [4]): 0.229 µM
6 | OC1C(COC(=S)NC2CCCCC2)OC(n2cnc3c(N[C@@H]4CCOC4)ncnc32)C1O (stereo partly drawn) [Compound 55] | 82 | – | 0.252 | Ki (A1 receptor; [4]): 0.962 µM
7 | OC1C(COC(=S)NC2CCCC2OCc2ccccc2)OC(n2cnc3c(N[C@@H]4CCOC4)ncnc32)C1O (stereo partly drawn) [Compound 57] | 67 | – | – | cAMP (A1 adenosine receptor [2]): 73%
8 | OC1C(COC(=S)NC2CCC2)OC(n2cnc3c(N[C@@H]4CCOC4)ncnc32)C1O (stereo partly drawn) [Compound 58, 2-{1[((3)oxolan-3-yl)amino]purin-9-yl}(4S,2R,3R,5R)-5-{[(cyclobutylamino)thioxomethoxy]methyl}oxolane-3,4-diol] | 79 | 78 | – | –
9 | OC1C(COC(=S)NC2CC2)OC(n2cnc3c(N[C@@H]4CCOC4)ncnc32)C1O (stereo partly drawn) [Compound 59] | 82 | 115 | – | –
10 | C=CCNC(=S)OCC1OC(n2cnc3c(N[C@@H]4CCOC4)ncnc32)C(O)C1O (stereo partly drawn) [Compound 60, 2-{6-[((3R)oxolan-3-yl)amino]purin-9-yl}(4S,2R,3R,5R)-5-{[(prop-2-enylaminio)thioxomethoxy]methyl}oxolane3,4diol] | 77 | – | – | Ki (A1 receptor; [4]): 0.239 µM
11 | OC1CCCC1NC(=S)OCC1OC(n2cnc3c(N[C@@H]4CCOC4)ncnc32)C(O)C1O (stereo partly drawn) [Compound 63] | 100 | 115 | – | –
12 | OC1CCCC1NC(=S)OCC1OC(n2cnc3c(N[C@@H]4CCOC4)ncnc32)C(O)C1O (stereo partly drawn) [Compound 64] | – | – | – | GTPγS (A1 adenosine receptor [1]): 99%; cAMP (A1 adenosine receptor [2]): 110%
13 | O=C(NC1CCCC1C(=O)O)OCC1OC(n2cnc3c(N[C@@H]4CCOC4)ncnc32)C(O)C1O (stereo partly drawn) [Compound 65] | 81 | 95 | – | –
14 | O=C(O)CCNC(=O)OCC1OC(n2cnc3c(N[C@@H]4CCOC4)ncnc32)C(O)C1O (stereo partly drawn) [Compound 67] | 59 | – | 2.22 | –
15 | O=C(NCC1OC(n2cnc3c(N[C@@H]4CCOC4)ncnc32)C(O)C1O)OC1CCCC1 (stereo partly drawn) [Compound 70] | 76 | 79 | – | –
16 | COC(=S)NCC1OC(n2cnc3c(N[C@@H]4CCOC4)ncnc32)C(O)C1O (stereo partly drawn) [Compound 71] | 98 | 94 | – | –
17 | OC1C(CNC(=S)OC2CCCC2)OC(n2cnc3c(N[C@@H]4CCOC4)ncnc32)C1O (stereo partly drawn) [Compound 72, 2-{6-[((3R)oxolan-3-yl)amino]purin-9-yll(4S,2R,3R,5R)5-{[cyclopentyloxythioxomethyl)amino]methyl}oxolane3,4-diol] | 93 | 103 | – | –
18 | O=C(NC1CCCC1)SCC1OC(n2cnc3c(NC4CCOC4)ncnc32)C(O)C1O [Compound 73, [(5-{6-[((3R)oxolan-3-yl)amino]purin-9-yl}(2S,3S,4R,5R)3,4-dihydroxyoxolan-2-yl)methythio]-N-cyclopentylcarboxamide] | 109 | – | 0.183 | –
19 | CNC(=S)SCC1OC(n2cnc3c(NC4CCOC4)ncnc32)C(O)C1O [Compound 74, 2-{6[((3R)oxolan-3-yl)ainio]purin-9yl}(4S,5S,2R,3R)5-{[(methylamniio)thioxomethylthio]methyl}oxolane3,4diol] | 95 | 82 | – | –
20 | O[C@@H]1[C@H](O)[C@@H](CSC(=S)NC2CCCC2)O[C@H]1n1cnc2c(N[C@@H]3CCOC3)ncnc21 [Compound 75, 2-{6-[((3R)oxolan-3-yl)amino]purin-9-yl}(4S,5S,2R,3R)-5-{[(cyclopentylamino)thioxomethylthio]methyl}oxolane-3,4-diol] | 91 | – | 0.062 | –
21 | CNC(=S)NC[C@H]1O[C@@H](n2cnc3c(N[C@@H]4CCOC4)ncnc32)[C@H](O)[C@@H]1O [Compound 77, 2-{6[((3R)oxolan-3-yl)amino]purin-9-yl}(4S,2R,3R,5R)5-({[(methylamino)thioxomethyl]amino}methyl)oxolane-3,4diol] | 101 | – | 0.113 | –
22 | OC1C(CNC(=S)NC2CCCC2)OC(n2cnc3c(NC4CCOC4)ncnc32)C1O [Compound 78, 2-{6-[((3R)oxolan-3-yl)amino]purin-9-yl}(4S,2R,3R,5R)-5-({[(cyclopentylamnino)thioxomethyl]amino}methyl)oxolane3,4diol] | 95 | – | 0.357 | –
23 | O=c1occn1CC1OC(n2cnc3c(N[C@@H]4CCOC4)ncnc32)C(O)C1O (stereo partly drawn) [Compound 80] | 80 | 64 | – | –

— patent US20020037872A1, “N6 heterocyclic 5' modified adenosine derivatives” (CV Therapeutics, Inc., priority 1999, published 2002)
